This is an account of results in article PMC8610083 (Clinical cancer research : an official journal of the …, 2021).

Data set [1] has as its target T1, γ-secretase (Homo sapiens, UniProt P49768). The experiment in a line: Membrane-based radioligand binding assay with [^131I]-PN67. Particulars: for Blocking of PN67 binding to γ-secretase: Hela cell membrane, [^131I]-PN67 radioligand.
Data set [2] deals with T1, γ-secretase. The experiment in a line: In vitro γ-secretase activity assay. Type of data set: biochemical.
Data set [3] is described as follows: Ex vivo biodistribution in 4T1-Luc allograft mouse model.
The target in data set [4] is γ-secretase (Mus musculus, UniProt P49769). Kind of data set: PET imaging of 4T1-Luc tumors in BALB/c mice, baseline and blocking. Type of data set: in vivo. As to conditions: co-injection 0.2 mg/kg to 30 mg/kg, 2h post injection.
Where [5] appears, read: biodistribution, post injection.

Consider `O=C(O)CC[C@H]1CC[C@@](c2cc(F)ccc2F)(S(=O)(=O)c2ccc(Cl)cc2)CC1` [MK-0752], for which, on γ-secretase [1], the “Blocking of PN67 binding to γ-secretase” value was “effectively block PN67 binding to γ-secretase”.
Consider `CCC[C@H](N[C@H]1CCc2cc(F)cc(F)c2C1)C(=O)Nc1cn(C(C)(C)CNCC(C)(C)C)cn1` [PF-03084014], for which the “Blocking of PN67 binding to γ-secretase” value at γ-secretase [1] is given as “effectively block PN67 binding to γ-secretase”.
As to `CC(C)(C(=O)NCC(F)(F)C(F)(F)F)C(=O)N[C@@H]1C(=O)Nc2ccccc2-c2ccccc21` [RO-4929097], the “Blocking of PN67 binding to γ-secretase” value at γ-secretase [1] is “effectively block PN67 binding to γ-secretase”.
For `CC(C)[C@H](O)C(=O)N[C@@H](C)C(=O)N[C@@H]1C(=O)N(C)CCc2ccccc21` [compound 1, Semagacestat], the IC50 against γ-secretase [2] came to 16.2 nM. Moreover, the “Blocking of 4T1 tumor uptake of [^124I]-PN67 (biodistribution)” value in data set [3] (co-administered 30mg/kg with the tracer, 2h time point) is “significant reduction of tracer uptake”. At γ-secretase [1], this molecule showed an inhibition constant (Ki) of 13.6 nM. Moreover, at γ-secretase [4], the “Blocking of [^124I]-PN67 PET signal in 4T1-Luc tumor” value is listed as “blocked in a dose-dependent manner”.
`CC(C)[C@H](O)C(=O)N[C@@H](C)C(=O)N[C@@H]1C(=O)N(C)CCc2ccc(I)cc21` [compound 2, (S)-2-hydroxy-N-((S)-1-(((S)-8-iodo-3-methyl-2-oxo-2,3,4,5-tetrahydro-1H-benzo[d]azepin-1-yl)amino)-1-oxopropan-2-yl)-3-methylbutanamide] came in with a half-inhibitory concentration (IC50) on γ-secretase [2] of 3.5 nM. For the same molecule, the “Half-life in mouse models” value in data set [3] (based on ex vivo biodistribution and PET imaging) is given as “about 2 hours”. In data set [3] (setting [5]), the “Time of maximal radioactivity in large intestine” value worked out at 2 h, the “Time of maximal radioactivity in liver” value came out at 0.5 h and the “Time of maximal radioactivity in small intestine” value was determined as 1 h. The molecule further gave a Ki at γ-secretase [1] of 4.3 nM.
